As usually defined, the IC50 is the concentration needed to halve the response being measured.

The target in this test is T1, cPLA2 (Homo sapiens, UniProt P47712).
T1 sequence (P47712 1-749): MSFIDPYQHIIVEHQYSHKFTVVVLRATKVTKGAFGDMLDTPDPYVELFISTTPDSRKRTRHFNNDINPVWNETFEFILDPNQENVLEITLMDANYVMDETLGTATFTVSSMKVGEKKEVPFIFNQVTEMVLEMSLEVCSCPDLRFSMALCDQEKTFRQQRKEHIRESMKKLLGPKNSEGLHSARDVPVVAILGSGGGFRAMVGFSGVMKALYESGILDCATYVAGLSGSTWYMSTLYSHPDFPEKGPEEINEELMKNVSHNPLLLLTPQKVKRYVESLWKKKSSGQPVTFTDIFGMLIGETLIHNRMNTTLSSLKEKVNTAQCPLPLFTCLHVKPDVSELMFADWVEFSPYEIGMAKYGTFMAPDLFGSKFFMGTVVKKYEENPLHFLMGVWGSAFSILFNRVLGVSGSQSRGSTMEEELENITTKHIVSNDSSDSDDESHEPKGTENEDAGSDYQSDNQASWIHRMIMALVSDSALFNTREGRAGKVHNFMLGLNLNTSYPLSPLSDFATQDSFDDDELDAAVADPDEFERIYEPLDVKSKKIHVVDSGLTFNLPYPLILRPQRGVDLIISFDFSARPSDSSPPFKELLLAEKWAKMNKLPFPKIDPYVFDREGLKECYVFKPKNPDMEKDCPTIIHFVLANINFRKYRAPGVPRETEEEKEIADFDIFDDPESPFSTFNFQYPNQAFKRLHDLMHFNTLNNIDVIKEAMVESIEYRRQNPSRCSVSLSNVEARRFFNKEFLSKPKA
Put plainly: Coumarine assay (hydrolysis of 7-hydroxycoumarinyl 6-heptenoate). Particulars: 60 μM 7-hydroxycoumarinyl 6-heptenoate, pH 7.5; read-out: Coumarin IC50. It is filed as biochemical.

Experimental: Inhibitors were mixed with 200 μL assay buffer (80 mM Heped, pH 7.5, 1 mM EDTA) containing 60 μM 7-hydroxycoumarinyl 6-heptenoate. The reaction was initiated by adding 4 μg cPLA2 in 50 μL assay buffer. Hydrolysis of the 7-hydroxycounarimyl 6-heptenoate ester was monitored in a fluorometer by exciting at 360 nm and monitoring emission at 460 nm. Enzyme activity is proportional to the increase in emission at 460 nm per minute. In the presence of a cPLA2 inhibitor, the rate of increase is less.

`COc1cccc(OC)c1S(=O)(=O)NCCc1c(CCCc2ccc(C(=O)O)cc2)c2cc(Cl)ccc2n1C(c1ccccc1)c1ccccc1` [Example 275, 4-{3-[1-benzhydryl-5-chloro-2-(2-{[(2,6-dimethoxyphenyl)sulfonyl]amino}ethyl)-1H-indol-3-yl]propyl}benzoic acid]: the IC50 worked out at 240 nM.

For the compound `CS(=O)(=O)c1ccccc1S(=O)(=O)NCCc1c(CCOc2ccc(C(=O)O)cc2)c2cc(Cl)ccc2n1C(c1ccccc1)c1ccccc1` [Example 205], the IC50 stood at 370 nM.

As for `NCc1ccccc1S(=O)(=O)NCCc1c(CCOc2ccc(C(=O)O)cc2)c2cc(Cl)ccc2n1C(c1ccccc1)c1ccccc1` [Example 163, 4-(2-{2-[2-({[2-(aminomethyl)phenyl]sulfonyl}amino)ethyl]-1-benzhydryl-5-chloro-1H-indol-3-yl}ethoxy)benzoic acid], the IC50 stood at 300 nM.

As to `O=C(O)c1ccc(OCCc2c(CCNS(=O)(=O)c3ccccc3[N+](=O)[O-])n(C(c3ccccc3)c3ccccc3)c3ccc(Cl)cc23)cc1` [Example 265, 4-{2-[1-benzhydryl-5-chloro-2-(2-{[(2-nitrophenyl)sulfonyl]amino}ethyl)-1H-indol-3-yl]ethoxy}benzoic acid], the IC50 worked out at 370 nM.

For the compound `O=C(O)CCc1ccc(S(=O)(=O)CCc2c(CCNS(=O)(=O)Cc3ccccc3)n(C(c3ccccc3)c3ccccc3)c3ccc(Cl)cc23)cc1` [Example 130, 3-(4-{[2-(1-Benzhydryl-2-{2-[(benzylsulfonyl)amino]ethyl}-5-chloro-1H-indol-3-yl)ethyl]sulfonyl}phenyl)propanoic acid], the IC50 came to 170 nM.

For the compound `O=C(O)c1ccc(OCCc2c(CCNS(=O)(=O)c3c(F)cccc3F)n(C(c3ccccc3)c3ccccc3)c3ccc(Cl)cc23)cc1` [Example 225, 4-{2-[1-benzhydryl-5-chloro-2-(2-{[(2,6-difluorophenyl)sulfonyl]amino}ethyl)-1H-indol-3-yl]ethoxy}benzoic acid], the 50% inhibitory concentration (IC50) was found to be 400 nM.

For `O=C(O)c1ccc(CCCc2c(CCNS(=O)(=O)c3cc(F)c(Cl)cc3F)n(C(c3ccccc3)c3ccccc3)c3ccc(Cl)cc23)cc1` [Example 168, 4-{3-[1-benzhydryl-5-chloro-2-(2-{[(4-chloro-2,5-difluorophenyl)sulfonyl]amino}ethyl)-1H-indol-3-yl]propyl}benzoic acid], the IC50 was determined as 270 nM.

Take `O=C(O)c1ccc(CCCc2c(CCNS(=O)(=O)Cc3ccccc3[N+](=O)[O-])n(C(c3ccccc3)c3ccccc3)c3ccc(Cl)cc23)cc1` [Example 56, 4-{3-[5-Chloro-1-(diphenylmethyl)-2-(2-{[(2-nitrobenzyl)sulfonyl]amino}ethyl)-1H-indol-3-yl]propyl}benzoic acid]: the IC50 is 130 nM.

Consider `CC(CCl)c1ccccc1S(=O)(=O)NCCc1c(CCCc2ccc(C(=O)O)cc2)c2cc(Cl)ccc2n1C(c1ccccc1)c1ccccc1` (stereo not shown) [Example 277, 4-(3-{1-Benzhydryl-5-chloro-2-[2-({[2-(2-chloro-1-methylethyl)phenyl]sulfonyl}amino)ethyl]-1H-indol-3-yl}propyl)benzoic acid], for which the IC50 is 600 nM.

As to `O=C(O)c1ccc(OCCc2c(CCNS(=O)(=O)Cc3cccc(C(F)(F)F)c3)n(C(c3ccccc3)c3ccccc3)c3ccc(Cl)cc23)cc1` [Example 12], the IC50 was 150000 nM.

For the compound `O=C(O)c1ccc(OCCc2c(CCNS(=O)(=O)c3cc(F)c(Cl)cc3F)n(C(c3ccccc3)c3ccccc3)c3ccc(Cl)cc23)cc1` [Example 170, 4-{2-[1-benzhydryl-5-chloro-2-(2-{[(4-chloro-2,5-difluorophenyl)sulfonyl]amino}ethyl)-1H-indol-3-yl]ethoxy}benzoic acid], the IC50 amounted to 950 nM.

Take `O=C(O)c1ccc(OCCc2c(CCNS(=O)(=O)c3cccc(OC(F)(F)F)c3)n(C(c3ccccc3)c3ccccc3)c3ccc(Cl)cc23)cc1` [Example 198, 4-(2-{1-Benzhydryl-5-chloro-2-[2-(3-trifluoromethoxy-benzenesulfonylamino)-ethyl]-1H-indol-3-yl}-ethoxy)-benzoic acid]: the IC50 is 700 nM.

For the compound `O=C(O)c1ccc(CCCc2c(CCNS(=O)(=O)c3ccc(Cl)c4nonc34)n(C(c3ccccc3)c3ccccc3)c3ccc(Cl)cc23)cc1` [Example 172, 4-{3-[1-benzhydryl-5-chloro-2-(2-{[(7-chloro-2,1,3-benzoxadiazol-4-yl)sulfonyl]amino}ethyl)-1H-indol-3-yl]propyl}benzoic acid], the IC50 turned out to be 350 nM.

`O=C(O)c1ccc(CCCc2c(CCNS(=O)(=O)c3cccc(C(F)(F)F)c3)n(C(c3ccccc3)c3ccccc3)c3ccc(Cl)cc23)cc1` [Example 218, 4-(3-{1-Benzhydryl-5-chloro-2-[2-({[3-(trifluoromethyl)phenyl]sulfonyl}amino)ethyl]-1H-indol-3-yl}propyl)benzoic acid]: the IC50 worked out at 140 nM.

In the case of `Cc1c(Cl)cccc1S(=O)(=O)NCCc1c(CCOc2ccc(C(=O)O)cc2)c2cc(Cl)ccc2n1C(c1ccccc1)c1ccccc1` [Example 241, 4-{2-[1-benzhydryl-5-chloro-2-(2-{[(3-chloro-2-methylphenyl)sulfonyl]amino}ethyl)-1H-indol-3-yl]ethoxy}benzoic acid], the IC50 stood at 540 nM.

Take `Cc1cc(C)c(S(=O)(=O)NCCc2c(CCCc3ccc(C(=O)O)cc3)c3cc(Cl)ccc3n2C(c2ccccc2)c2ccccc2)c(C)c1` [Example 267, 4-(3-{1-Benzhydryl-5-chloro-2-[2-(2,4,6-trimethyl-benzenesulfonylamino)-ethyl]-1H-indol-3-yl}-propyl)-benzoic acid]: the concentration for half-maximal inhibition (IC50) stood at 74 nM.

In the case of `Cc1ccccc1S(=O)(=O)NCCc1c(CCCc2ccc(C(=O)O)cc2)c2cc(Cl)ccc2n1C(c1ccccc1)c1ccccc1` [Example 232], the IC50 turned out to be 130 nM.

In the case of `COc1cc(C)ccc1S(=O)(=O)NCCc1c(CCCc2ccc(C(=O)O)cc2)c2cc(Cl)ccc2n1C(c1ccccc1)c1ccccc1` [Example 167, 4-{3-[1-benzhydryl-5-chloro-2-(2-{[(2-methoxy-4-methylphenyl)sulfonyl]amino}ethyl)-1H-indol-3-yl]propyl}benzoic acid], the IC50 is 190 nM.

For the compound `Cc1ccc(S(=O)(=O)NCCc2c(CCOc3ccc(C(=O)O)cc3)c3cc(Cl)ccc3n2C(c2ccccc2)c2ccccc2)cc1Cl` [Example 260, 4-{2-[1-benzhydryl-5-chloro-2-(2-{[(3-chloro-4-methylphenyl)sulfonyl]amino}ethyl)-1H-indol-3-yl]ethoxy}benzoic acid], the concentration for half-maximal inhibition (IC50) was determined as 370 nM.

For the compound `O=C(O)c1ccc(OCCc2c(CCNS(=O)(=O)Cc3cc(F)cc(F)c3)n(C(c3ccccc3)c3ccccc3)c3ccc(Cl)cc23)cc1` [Example 35, 4-{2-[1-benzhydryl-5-chloro-2-(2-{[(3,5-difluorobenzyl)-sulfonyl]amino}ethyl)-1H-indol-3-yl]ethoxy}benzoic acid], the IC50 was 330 nM.

In the case of `Cc1nn(C)c(C)c1S(=O)(=O)NCCc1c(CCCc2ccc(C(=O)O)cc2)c2cc(Cl)ccc2n1C(c1ccccc1)c1ccccc1` [Example 212, 4-{3-[1-benzhydryl-5-chloro-2-(2-{[(1,3,5-trimethyl-1H-pyrazol-4-yl)sulfonyl]amino}ethyl)-1H-indol-3-yl]propyl}benzoic acid], the IC50 was found to be 180 nM.

On to `CC(CCl)c1ccccc1S(=O)(=O)NCCc1c(CCOc2ccc(C(=O)O)cc2)c2cc(Cl)ccc2n1C(c1ccccc1)c1ccccc1` (stereo not shown) [Example 278], for which the IC50 is 1900 nM.

(Values after patent US7605156B2, “Methods for the use of inhibitors of cytosolic phospholipase A2” (Wyeth, priority 2001, dated 2009).)
